Calls of active or inactive are those of the source. The calls are words filed in the database; no cut-off is given here.

For 14 compounds, inhibition results are on record in ChEMBL document CHEMBL3596112, “Sulfonium ions as inhibitors of the mycobacterial galactofuranosyltransferase GlfT2” (Medchemcomm, 2014).

This assay concerns the target T1, Galactofuranosyltransferase GlfT2 (Mycobacterium tuberculosis) (UniProt O53585).
T1 sequence (whole entry): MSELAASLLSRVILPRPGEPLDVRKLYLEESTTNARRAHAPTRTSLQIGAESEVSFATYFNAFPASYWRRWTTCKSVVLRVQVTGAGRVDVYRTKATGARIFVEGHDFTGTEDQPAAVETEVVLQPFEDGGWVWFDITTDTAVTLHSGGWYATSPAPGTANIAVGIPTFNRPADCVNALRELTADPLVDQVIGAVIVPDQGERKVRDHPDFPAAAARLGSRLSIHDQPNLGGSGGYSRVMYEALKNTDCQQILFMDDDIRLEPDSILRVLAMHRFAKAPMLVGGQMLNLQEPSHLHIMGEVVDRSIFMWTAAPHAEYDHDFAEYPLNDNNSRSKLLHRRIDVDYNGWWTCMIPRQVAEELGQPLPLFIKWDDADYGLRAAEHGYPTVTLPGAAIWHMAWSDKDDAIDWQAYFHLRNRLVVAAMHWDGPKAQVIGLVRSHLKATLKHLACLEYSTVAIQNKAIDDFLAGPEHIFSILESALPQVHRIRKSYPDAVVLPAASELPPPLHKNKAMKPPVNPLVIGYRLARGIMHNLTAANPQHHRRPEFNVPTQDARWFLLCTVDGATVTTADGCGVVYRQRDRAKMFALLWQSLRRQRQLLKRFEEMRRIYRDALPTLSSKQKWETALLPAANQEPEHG
The assay can be described thus: Inhibition of Mycobacterium tuberculosis recombinant GlfT2 using beta-D-Galf-(1-5)-beta-D-Galf-(1-6)-beta-D-Galf-octyl as acceptor and UDP-Galf as donor substrate at 4 mM by coupled spectrophotometric assay.

As for `COCC[S+]1C[C@H]([C@H](O)CO)[C@H](O)C1` (some centres undefined), the inhibition entry was “inactive”. Regarding `CC(C)C[S+]1C[C@H]([C@H](O)CO)[C@H](O)C1` (some centres undefined), the inhibition entry was “inactive”.

`OCCCCCCCCCCCC[S+]1C[C@H]([C@H](O)CO)[C@H](O)C1` (some centres undefined): the inhibition was 60%. In the case of `COCCCCCCCC[S+]1C[C@H]([C@H](O)CO)[C@H](O)C1` (some centres undefined), the inhibition entry was “inactive”. The same measure for `CCCCCCCC[S+]1C[C@H]([C@H](O)CO)[C@H](O)C1` (some centres undefined): “inactive”; for `O=c1ccn([C@@H]2O[C@H](COCCCC[S+]3C[C@H]([C@H](O)CO)[C@H](O)C3)[C@@H](O)[C@H]2O)c(=O)[nH]1` (some centres undefined): “inactive”; for `CCC[S+]1C[C@H]([C@H](O)CO)[C@H](O)C1` (some centres undefined): “inactive”.

On to `OCCC[S+]1C[C@H]([C@H](O)CO)[C@H](O)C1` (some centres undefined), for which the inhibition result is “inactive”. The same measure for `OC[C@@H](O)[C@H]1C[S+](CCc2ccccc2)C[C@H]1O` (some centres undefined): “inactive”.

Consider `OC[C@@H](O)[C@H]1C[S+](Cc2ccccc2)C[C@H]1O` (some centres undefined), for which the inhibition entry is “inactive”.

Turning to `OC[C@@H](O)[C@H]1C[S+](CC2CCCCC2)C[C@H]1O` (some centres undefined), the inhibition entry is “inactive”. As to `OCCCCCCCC[S+]1C[C@H]([C@H](O)CO)[C@H](O)C1` (some centres undefined), the inhibition result is “inactive”. `O=[N+]([O-])c1ccc(C[S+]2C[C@H]([C@H](O)CO)[C@H](O)C2)cc1` (some centres undefined): the inhibition result was “inactive”. Regarding `O=c1ccn([C@@H]2O[C@H](COCCC[S+]3C[C@H]([C@H](O)CO)[C@H](O)C3)[C@@H](O)[C@H]2O)c(=O)[nH]1` (some centres undefined), the inhibition entry is “inactive”.

By inhibition is commonly meant the percentage by which the read-out fell short of the control.
